How the values were obtained:
[1] = Plasma pharmacokinetics of meptazinol dicarboxylate linked prodrugs after oral gavage to dogs; assay type: in vivo, dog; settings: 1 mg meptazinol base equivalents/kg; for Dog Cmax (plasma prodrug levels, in brackets) / Cmax: oral gavage of prodrug, prodrug level, BLQ = below 0.5 ng/mL; for Cmax: beagle, plasma, read-out: Dog Cmax (plasma prodrug levels, in brackets)
[2] = Plasma pharmacokinetics of meptazinol dicarboxylate linked prodrugs after oral gavage to cynomolgus monkeys; assay type: in vivo, cynomolgus monkey; settings: 1 mg meptazinol base equivalents/kg
[3] = Comparative oral bioavailability of oxycodone from various dicarboxylate bridged amino acid prodrugs in dogs (nine-way crossover); assay type: in vivo, dog; settings: 1 mg/kg oxycodone free base; for Cmax of oxycodone / T50% Cmax of oxycodone / AUC0-t of oxycodone: mean (±sd); for AUC0-t of oxycodone: t = last quantifiable time point
[4] = In vitro stability of dicarboxylate amino acid ester prodrugs in simulated gastric and intestinal juice, distilled water and pH 10 buffer (HPLC); settings: for Simulated gastric fluid (pH 1.1): % remaining after 2 h/37° C.: pH 1.1, 2 h; for Distilled water (pH 5.9): % remaining after 2 h/20° C.: pH 5.9, 2 h; for Simulated intestinal fluid (pH 6.8): % remaining after 2 h/37° C.: pH 6.8, 2 h; for pH 10.0 buffer: % remaining after 2 h/20° C.: pH 10.0, 2 h
[5] = cynomolgus monkey, oral gavage of prodrug, prodrug level, BLQ = below 0.5 ng/mL

CCC1(c2cccc(OC(=O)CCCC(=O)N[C@H](C(=O)O)C(C)C)c2)CCCCN(C)C1 (stereo partly drawn) [Meptazinol [glutaryl-(S)-valine] ester]
systemic levels of meptazinol versus expected Cmax after the drug itself ([1]; dog, oral gavage): improved systemic levels of meptazinol
Dog Cmax (plasma prodrug levels, in brackets) ([1]; dog): 2.8 ng/mL
improvement in systemic levels of meptazinol ([2]; monkey, oral gavage): not seen in the monkey

CCC1(c2cccc(OC(=O)/C=C\C(=O)N[C@H](C(=O)O)C(C)C)c2)CCCCN(C)C1 (stereo partly drawn) [Meptazinol [malearyl-(S)-valine] ester]
Cmax ([1]; dog): 6 ng/mL
Monkey Cmax (plasma prodrug levels, in brackets) [2, 5]: BLQ

CCC1(c2cccc(OC(=O)CC(C)(C)CC(=O)N[C@H](C(=O)O)C(C)C)c2)CCCCN(C)C1 (stereo partly drawn) [Meptazinol-[3,3-dimethyl-glutaryl-(S)-valine] ester]
Cmax ([1]; dog): 116 ng/mL
systemic levels of the prodrug ([1]; oral gavage): good systemic levels of the prodrug
Cmax ([2]; plasma, cynomolgus monkey, oral gavage of prodrug, prodrug level, BLQ = below 0.5 ng/mL, read-out: Monkey Cmax (plasma prodrug levels, in brackets)): 43 ng/mL

CCC1(c2cccc(OC(=O)/C=C/C(=O)N[C@H](C(=O)O)C(C)C)c2)CCCCN(C)C1 (stereo partly drawn) [Meptazinol-[fumaryl-(S)-valine] ester]
Dog Cmax (plasma prodrug levels, in brackets) ([1]; dog): BLQ
Monkey Cmax (plasma prodrug levels, in brackets) [2, 5]: BLQ

CC[C@H](C)[C@H](NC(=O)CCC(=O)OC1=CC[C@@]2(O)[C@H]3Cc4ccc(OC)c5c4[C@@]2(CCN3C)[C@H]1O5)C(=O)O [Oxycodone-Succinyl-Ile Enol Ester, oxycodone-[succinyl-(S)-isoleucine] enol ester]
F % (absolute oral bioavailability of oxycodone) [3]: 36.0%
Cmax of oxycodone [3]: 57.9 (±8.7) ng/mL
T50% Cmax of oxycodone [3]: 1.6 (±0.4) h.
AUC0-t of oxycodone [3]: 130.6 (±25.6) h. * ng/mL
Simulated gastric fluid (pH 1.1): % remaining after 2 h/37° C. [4]: 98%
Distilled water (pH 5.9): % remaining after 2 h/20° C. [4]: 100%
Simulated intestinal fluid (pH 6.8): % remaining after 2 h/37° C. [4]: 91%
pH 10.0 buffer: % remaining after 2 h/20° C. [4]: 66%

COc1ccc2c3c1OC1C(OC(=O)CCC(=O)N[C@@H](CC(C)C)C(=O)O)=CC[C@@]4(O)[C@@H](C2)N(C)CC[C@]314 (stereo partly drawn) [Oxycodone-Succinyl-Leu Enol Ester, oxycodone-[succinyl-(S)-leucine]enol ester]
F % (absolute oral bioavailability of oxycodone) [3]: 39.3%
Cmax of oxycodone [3]: 60.9 (±15.0) ng/mL
T50% Cmax of oxycodone [3]: 1.9 (±0.2) h.
AUC0-t of oxycodone [3]: 142.5 (±28.4) h. * ng/mL
Simulated gastric fluid (pH 1.1): % remaining after 2 h/37° C. [4]: 98%
Distilled water (pH 5.9): % remaining after 2 h/20° C. [4]: 100%
Simulated intestinal fluid (pH 6.8): % remaining after 2 h/37° C. [4]: 78%
pH 10.0 buffer: % remaining after 2 h/20° C. [4]: 68%

COc1ccc2c3c1OC1C(OC(=O)CCC(=O)N[C@@H](CCSC)C(=O)O)=CC[C@@]4(O)[C@@H](C2)N(C)CC[C@]314 (stereo partly drawn) [Oxycodone-Succinyl-Met Enol Ester, oxycodone-[succinyl-(S)-methionine]enol ester]
F % (absolute oral bioavailability of oxycodone) [3]: 49.8%
Cmax of oxycodone [3]: 68.3 (±21.1) ng/mL
T50% Cmax of oxycodone [3]: 2.3 (±0.8) h.
AUC0-t of oxycodone [3]: 180.6 (±37.7) h. * ng/mL
Simulated gastric fluid (pH 1.1): % remaining after 2 h/37° C. [4]: 99%
Distilled water (pH 5.9): % remaining after 2 h/20° C. [4]: 100%
Simulated intestinal fluid (pH 6.8): % remaining after 2 h/37° C. [4]: 84%
pH 10.0 buffer: % remaining after 2 h/20° C. [4]: 58%
